Results as given in ChEMBL document CHEMBL1201862, “PubChem BioAssay data set” (2004).
Structures can show the parent of a compound that is named as a salt. The source made the active and inactive calls.

Columns and labels:
Type in all cases: functional
[1] = target: T1, G-protein coupled receptor 35 (Homo sapiens, UniProt Q9HC97); assay: SAR analysis of Agonists of the GPR35 Receptor using an Image-Based Assay - Set 4. [Related pubchem assays (depositor defined):AID2013, AID2026]
Cannabinoid receptor 2 [2] = target: T2, Cannabinoid receptor 2 (Homo sapiens, UniProt P34972); assay: SAR analysis of antagonists of the Cannabinoid Receptor 2 using an Image-Based Assay - Set 3. [Related pubchem assays (depositor defined):AID2013, AID2026]
Cannabinoid receptor 1 [3] = target: T3, Cannabinoid receptor 1 (Homo sapiens, UniProt P21554); assay: SAR analysis of antagonists of the Cannabinoid Receptor 1 using an Image-Based Assay - Set 4. [Related pubchem assays (depositor defined):AID2013, AID2026]
Cannabinoid receptor 1 [4] = target: T3, Cannabinoid receptor 1; assay: SAR analysis of agonists of the Cannabinoid Receptor 1 using an Image-Based Assay - Set 4. [Related pubchem assays (depositor defined):AID2013, AID2026]
[5] = target: G-protein coupled receptor 55 (Homo sapiens, UniProt Q9Y2T6); assay: SAR Analysis of Selective Antagonists of GPR55 using an Image-Based Assay - Set 4. [Related pubchem assays (depositor defined):AID2013, AID2026];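 further: antagonism of response to 5 µM lysophosphatidylinositol agonist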
Cannabinoid receptor 2 [6] = target: T2, Cannabinoid receptor 2; assay: SAR analysis of agonists of the Cannabinoid Receptor 2 using an Image-Based Assay - Set 3. [Related pubchem assays (depositor defined):AID2013, AID2026]
[7] = target: T1, G-protein coupled receptor 35; assay: SAR analysis of Antagonists of the GPR35 Receptor using an Image-Based Assay - Set 6. [Related pubchem assays (depositor defined):AID2013, AID2026]
Coagulation factor XII = Coagulation factor XII (Homo sapiens, UniProt P00748);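 further: activated factor XIIa alpha cleaving a fluorogenic AMC peptide substrate; inhibitor potency from loss of enzyme activity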
Mucolipin-3 = target: T4, Mucolipin-3 (Homo sapiens, UniProt Q8TDD5); assay: Fluorescence counterscreen assay for […] agonists: dose response cell-based high-throughput screening assay to identify agonists of the transient receptor potential channel ML3 (TRPML3). [Related pubchem assays: 1424, 1448 ]
T4 sequence (Q8TDD5 whole entry): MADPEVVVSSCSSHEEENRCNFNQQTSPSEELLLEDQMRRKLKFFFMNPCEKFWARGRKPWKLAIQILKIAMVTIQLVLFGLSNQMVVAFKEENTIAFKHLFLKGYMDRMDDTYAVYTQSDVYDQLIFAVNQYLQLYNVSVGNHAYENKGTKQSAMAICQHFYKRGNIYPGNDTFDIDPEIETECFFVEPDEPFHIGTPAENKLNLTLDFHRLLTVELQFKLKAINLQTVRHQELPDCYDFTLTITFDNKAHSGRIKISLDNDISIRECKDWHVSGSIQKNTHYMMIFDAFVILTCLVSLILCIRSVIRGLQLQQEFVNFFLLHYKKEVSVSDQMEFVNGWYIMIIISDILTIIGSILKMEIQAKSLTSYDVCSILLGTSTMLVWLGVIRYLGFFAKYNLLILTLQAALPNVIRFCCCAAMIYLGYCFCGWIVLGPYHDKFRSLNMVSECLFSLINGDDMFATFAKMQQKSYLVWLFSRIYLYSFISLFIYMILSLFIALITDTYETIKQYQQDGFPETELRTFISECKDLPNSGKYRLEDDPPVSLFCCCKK

[8] = target: Induced myeloid leukemia cell differentiation protein Mcl-1 (Homo sapiens, UniProt Q07820)
Ion channel NompC = Ion channel NompC (Danio rerio, UniProt Q7T1G6); assay: Dose response cell-based high-throughput screening assay for agonists of the transient receptor potential channel N1 (TRPN1). [Related pubchem assays (depositor defined):AID1424, AID1448]
[9] = target: T5, Rac GTPase-activating protein 1 (Homo sapiens, UniProt Q9H0H5); assay: blockers of MgcRacGAP-driven Rac1 GTP hydrolysis – biochemical, ADP Hunter fluorescence, primary and confirmatory, confirmation (AID 624330)
T5 sequence (Q9H0H5 whole entry): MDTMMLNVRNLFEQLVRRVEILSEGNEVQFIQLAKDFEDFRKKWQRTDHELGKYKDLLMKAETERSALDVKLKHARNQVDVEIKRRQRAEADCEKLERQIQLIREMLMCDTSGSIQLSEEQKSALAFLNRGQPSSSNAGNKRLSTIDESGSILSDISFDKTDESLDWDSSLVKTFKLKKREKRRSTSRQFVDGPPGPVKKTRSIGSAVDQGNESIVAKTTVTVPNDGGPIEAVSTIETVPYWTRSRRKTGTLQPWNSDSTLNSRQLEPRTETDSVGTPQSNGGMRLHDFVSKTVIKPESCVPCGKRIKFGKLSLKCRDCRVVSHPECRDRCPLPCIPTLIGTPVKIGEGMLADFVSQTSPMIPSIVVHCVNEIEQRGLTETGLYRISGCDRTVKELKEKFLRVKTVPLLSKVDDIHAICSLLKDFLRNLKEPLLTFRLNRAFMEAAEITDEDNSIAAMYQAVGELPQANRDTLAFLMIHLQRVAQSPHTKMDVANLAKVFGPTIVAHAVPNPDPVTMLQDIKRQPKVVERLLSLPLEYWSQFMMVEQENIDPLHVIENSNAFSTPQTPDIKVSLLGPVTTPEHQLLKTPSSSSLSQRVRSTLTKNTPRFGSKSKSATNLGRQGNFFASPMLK

BJ = assay: growth inhibition of engineered Ras-driven BJ cells – cell-based, alamar blue fluorescence, cherrypicked samples, dose response (AID 2631); conditions: Homo sapiens;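 further: confirmatory dose-response assay in RAS-dependent BJ fibroblasts engineered with TERT, LT and ST, with cytotoxicity read by fluorescence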
[10] = HEK-293T viability loss, compound-treated – cell-based, uHTS hits, cytotoxicity control for B/T-cell NF-kB inhibitor project, dose response (AID 489019);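 further: IC50 reflects cytotoxicity as loss of cell viability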
[11] = microbe, parasite or virus in culture; conditions: Mycobacterium tuberculosis

T1 sequence (Q9HC97 whole entry): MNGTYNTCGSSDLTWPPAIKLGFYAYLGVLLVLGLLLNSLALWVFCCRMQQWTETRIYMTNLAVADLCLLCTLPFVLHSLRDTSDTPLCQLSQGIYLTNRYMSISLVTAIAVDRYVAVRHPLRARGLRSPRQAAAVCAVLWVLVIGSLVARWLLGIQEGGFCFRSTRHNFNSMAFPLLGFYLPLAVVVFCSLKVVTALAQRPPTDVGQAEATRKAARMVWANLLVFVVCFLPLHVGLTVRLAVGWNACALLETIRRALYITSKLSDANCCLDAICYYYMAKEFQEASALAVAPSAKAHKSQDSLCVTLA
T2 sequence (P34972 whole entry): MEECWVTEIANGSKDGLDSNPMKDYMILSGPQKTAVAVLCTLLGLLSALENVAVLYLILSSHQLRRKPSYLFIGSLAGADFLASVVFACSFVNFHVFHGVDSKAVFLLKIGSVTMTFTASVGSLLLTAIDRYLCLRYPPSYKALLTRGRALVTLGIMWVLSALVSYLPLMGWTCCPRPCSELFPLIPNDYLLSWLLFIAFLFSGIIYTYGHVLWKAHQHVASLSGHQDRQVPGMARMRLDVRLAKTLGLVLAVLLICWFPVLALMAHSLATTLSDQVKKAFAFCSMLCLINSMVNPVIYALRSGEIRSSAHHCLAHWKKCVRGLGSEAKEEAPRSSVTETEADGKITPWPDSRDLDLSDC
T3 sequence (P21554 whole entry): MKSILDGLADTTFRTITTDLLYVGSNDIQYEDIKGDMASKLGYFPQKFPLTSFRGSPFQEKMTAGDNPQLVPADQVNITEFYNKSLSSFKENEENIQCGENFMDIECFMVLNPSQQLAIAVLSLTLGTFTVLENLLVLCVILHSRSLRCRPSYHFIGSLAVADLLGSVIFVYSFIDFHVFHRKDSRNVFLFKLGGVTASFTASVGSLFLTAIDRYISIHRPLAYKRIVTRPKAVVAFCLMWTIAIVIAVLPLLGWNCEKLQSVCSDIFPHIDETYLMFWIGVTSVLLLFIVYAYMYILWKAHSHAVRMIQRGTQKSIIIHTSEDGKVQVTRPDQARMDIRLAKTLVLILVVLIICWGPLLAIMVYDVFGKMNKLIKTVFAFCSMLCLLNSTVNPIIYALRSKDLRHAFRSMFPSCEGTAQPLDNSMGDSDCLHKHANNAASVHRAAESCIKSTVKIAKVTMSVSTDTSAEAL
Sequence of G-protein coupled receptor 55 (Q9Y2T6 whole entry): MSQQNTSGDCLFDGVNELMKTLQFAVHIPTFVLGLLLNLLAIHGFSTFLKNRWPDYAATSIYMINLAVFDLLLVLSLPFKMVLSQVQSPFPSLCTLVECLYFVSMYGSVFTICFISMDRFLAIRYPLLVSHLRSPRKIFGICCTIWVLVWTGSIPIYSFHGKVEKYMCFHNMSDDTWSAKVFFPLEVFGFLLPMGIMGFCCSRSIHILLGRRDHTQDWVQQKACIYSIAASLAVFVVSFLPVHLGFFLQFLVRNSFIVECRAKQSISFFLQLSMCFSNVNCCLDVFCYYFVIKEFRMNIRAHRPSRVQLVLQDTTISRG
Sequence of Ion channel NompC (Q7T1G6 whole entry): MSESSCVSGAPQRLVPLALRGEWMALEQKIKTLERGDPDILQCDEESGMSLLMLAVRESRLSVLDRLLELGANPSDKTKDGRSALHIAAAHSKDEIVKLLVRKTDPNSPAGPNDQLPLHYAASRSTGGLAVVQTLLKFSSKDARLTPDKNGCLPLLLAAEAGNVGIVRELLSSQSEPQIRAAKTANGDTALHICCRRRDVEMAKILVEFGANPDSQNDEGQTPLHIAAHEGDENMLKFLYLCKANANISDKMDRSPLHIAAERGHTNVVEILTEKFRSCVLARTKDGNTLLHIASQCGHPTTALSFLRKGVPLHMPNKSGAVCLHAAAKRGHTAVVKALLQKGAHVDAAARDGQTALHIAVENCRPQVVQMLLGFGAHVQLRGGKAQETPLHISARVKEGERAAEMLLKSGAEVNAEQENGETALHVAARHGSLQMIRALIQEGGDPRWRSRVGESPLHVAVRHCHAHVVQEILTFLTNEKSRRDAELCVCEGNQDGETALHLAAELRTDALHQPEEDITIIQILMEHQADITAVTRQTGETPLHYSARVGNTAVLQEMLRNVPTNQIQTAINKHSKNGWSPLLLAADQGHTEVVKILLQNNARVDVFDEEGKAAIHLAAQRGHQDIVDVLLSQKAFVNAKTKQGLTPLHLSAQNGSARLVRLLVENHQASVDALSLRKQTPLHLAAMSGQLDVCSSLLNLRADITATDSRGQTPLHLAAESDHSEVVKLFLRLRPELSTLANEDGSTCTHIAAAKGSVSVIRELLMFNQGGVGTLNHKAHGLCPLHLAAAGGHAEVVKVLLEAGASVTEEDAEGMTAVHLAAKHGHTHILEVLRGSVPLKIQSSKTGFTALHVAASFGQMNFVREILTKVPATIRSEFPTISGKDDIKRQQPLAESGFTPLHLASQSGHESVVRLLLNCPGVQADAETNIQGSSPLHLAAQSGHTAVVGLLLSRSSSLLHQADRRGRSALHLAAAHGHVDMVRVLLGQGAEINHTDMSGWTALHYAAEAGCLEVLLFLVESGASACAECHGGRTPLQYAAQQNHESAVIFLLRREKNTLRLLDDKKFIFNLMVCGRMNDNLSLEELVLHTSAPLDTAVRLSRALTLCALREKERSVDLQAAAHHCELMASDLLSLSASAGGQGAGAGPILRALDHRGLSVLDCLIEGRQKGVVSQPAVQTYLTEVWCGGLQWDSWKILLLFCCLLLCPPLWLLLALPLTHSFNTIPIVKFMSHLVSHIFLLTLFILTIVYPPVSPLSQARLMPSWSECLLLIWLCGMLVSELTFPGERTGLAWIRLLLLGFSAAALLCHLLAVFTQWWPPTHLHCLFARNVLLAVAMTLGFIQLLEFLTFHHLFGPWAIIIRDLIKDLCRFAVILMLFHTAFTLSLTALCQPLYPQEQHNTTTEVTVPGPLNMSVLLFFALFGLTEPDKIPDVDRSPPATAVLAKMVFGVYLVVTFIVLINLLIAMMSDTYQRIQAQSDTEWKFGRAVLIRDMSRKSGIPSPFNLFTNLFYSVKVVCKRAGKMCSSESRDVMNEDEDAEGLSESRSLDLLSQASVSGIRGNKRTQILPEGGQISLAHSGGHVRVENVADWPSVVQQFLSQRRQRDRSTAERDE
Sequence of Coagulation factor XII (P00748 20-372 limits assumed): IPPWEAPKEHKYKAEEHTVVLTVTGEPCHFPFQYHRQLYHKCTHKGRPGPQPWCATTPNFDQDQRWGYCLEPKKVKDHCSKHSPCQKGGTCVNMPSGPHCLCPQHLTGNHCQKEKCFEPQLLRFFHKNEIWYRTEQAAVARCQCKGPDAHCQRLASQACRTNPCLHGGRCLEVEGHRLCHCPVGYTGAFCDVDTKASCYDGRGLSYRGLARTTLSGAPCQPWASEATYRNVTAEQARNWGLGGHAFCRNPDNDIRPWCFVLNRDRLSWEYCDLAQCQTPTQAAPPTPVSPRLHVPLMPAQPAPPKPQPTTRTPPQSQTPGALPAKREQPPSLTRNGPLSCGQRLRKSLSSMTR
Sequence of Coagulation factor XII (P00748 373-615 limits assumed): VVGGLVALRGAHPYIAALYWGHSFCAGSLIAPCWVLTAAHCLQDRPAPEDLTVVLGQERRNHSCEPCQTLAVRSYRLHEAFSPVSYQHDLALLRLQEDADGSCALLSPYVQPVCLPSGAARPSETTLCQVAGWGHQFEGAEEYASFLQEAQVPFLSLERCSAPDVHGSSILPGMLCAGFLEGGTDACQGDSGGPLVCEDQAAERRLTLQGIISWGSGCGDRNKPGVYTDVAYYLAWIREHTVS
Sequence of Induced myeloid leukemia cell differentiation protein Mcl-1 (Q07820 whole entry): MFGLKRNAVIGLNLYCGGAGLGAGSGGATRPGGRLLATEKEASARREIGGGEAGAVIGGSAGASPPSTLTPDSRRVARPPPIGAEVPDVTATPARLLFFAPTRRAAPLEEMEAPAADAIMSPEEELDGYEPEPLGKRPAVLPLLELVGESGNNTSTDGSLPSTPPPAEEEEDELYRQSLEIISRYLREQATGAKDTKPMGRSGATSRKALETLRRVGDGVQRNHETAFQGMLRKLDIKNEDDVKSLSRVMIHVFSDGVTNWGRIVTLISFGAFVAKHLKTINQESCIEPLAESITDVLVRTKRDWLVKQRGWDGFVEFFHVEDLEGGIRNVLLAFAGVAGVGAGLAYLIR

Which results are given for COc1ccc(-n2cc3c(-c4ccc(-c5ccccc5)cc4)nnc(C)c3n2)cc1?
EC50 [1]: > 32 µM (inactive); IC50 (Cannabinoid receptor 2 [2]): 2.09 µM (active); IC50 (Cannabinoid receptor 1 [3]): 1.04 µM (active); EC50 (Cannabinoid receptor 1 [4]): > 32 µM (inactive); IC50 [5]: > 32 µM (inactive); EC50 (Cannabinoid receptor 2 [6]): > 32 µM (inactive); IC50 [7]: 4.74 µM (active)

For Cc1cccc(OCC(=O)N2CCN(c3nc(C)nc4sc5c(c34)CCCC5)CC2)c1, which EC50 [1] is on record?
Its EC50 is > 32 µM (inactive).

What about the IC50 (Cannabinoid receptor 2 [2]) of the same compound?
Its IC50 is > 11 µM (inactive).

What about the IC50 (Cannabinoid receptor 1 [3]) of the same compound?
The IC50 was 1.66 µM (active).

And the EC50 (Cannabinoid receptor 1 [4])?
The EC50 was > 32 µM (inactive).

And the IC50 [5]?
The IC50 was > 32 µM (inactive).

What about the EC50 (Cannabinoid receptor 2 [6]) of the same compound?
The EC50 was > 32 µM (inactive).

What about the IC50 [7] of the same compound?
Its IC50 is > 32 µM (inactive).

With CC(=O)c1sc(NC(=O)COc2ccc(Cl)cc2C)nc1C as the compound, how does the IC50 (Coagulation factor XII) read?
The IC50 was > 50 µM (inactive).

For O=C1/C(=C\c2ccc(O)cc2)SC(=S)N1/N=C/c1ccc(O)cc1, which EC50 (Mucolipin-3) is on record?
Its EC50 is > 29.9 µM (not active).

And the IC50 [8]?
Its IC50 is 2.48 µM (active).

And the EC50 (Ion channel NompC)?
Its EC50 is 4.9 µM (active).

And the IC50 [9]?
Its IC50 is 105 µM (active).

Which results are given for COc1cccc2c1C(=O)c1c(O)c3c(c(O)c1C2=O)C[C@@](O)(C(=O)CO)C[C@@H]3O[C@H]1C[C@H](N)[C@@H](O)[C@H](C)O1 [EPIRUBICIN HYDROCHLORIDE]?
EC50 (BJ): < 0.104 µM (active); IC50 [10]: > 80 µM (inactive); CC50 [11]: 18.7 µM (active)
